For one experiment, the target named is T1, human H4 (Homo sapiens, UniProt Q9H3N8).
T1 construct: host or cells: CHO-K1
The experiment in a line: In vitro histamine receptor cell-based assay (aequorin bioluminescence), H4 antagonism. The note with it: CHO-K1 cells expressing human H4, aequorin and Gα16; histamine at EC80; read-out: H4 Antagonist EC50. The essentials:
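Antagonism read as loss of aequorin luminescence after histamine (EC80 final) addition, following 15 min room-temperature compound pretreatment of coelenterazine-h-loaded (5 μM) CHO-K1 cells co-expressing human H4 and Gα16. Efficacy given relative to 10 μM JNJ7777120; agonism excluded in separate no-histamine runs.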

The next experiment concerns the target T2, human H1 (Homo sapiens, UniProt P35367).
T2 construct: host or cells: CHO-K1
The experiment in a line: In vitro histamine receptor cell-based assay (aequorin bioluminescence), H1 antagonism. The conditions noted are these: CHO-K1 cells expressing human H1 and aequorin; histamine at EC80; read-out: H1 Antagonist EC50. The essentials: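 Antagonism read as drop in aequorin luminescence after histamine challenge at a predetermined EC80, following 15 min compound pretreatment at room temperature. Cells: CHO-K1 carrying human H1, or H4 with Gα16; signal as AUC or amplitude, normalised to 10 μM diphenhydramine (H1) or JNJ7777120 (H4).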

In experiment [1] the test system is Hartley VAF outbred guinea pigs. The experiment in a line: Allergic conjunctivitis in passively sensitized guinea pigs (conjunctival EPO activity). Format: in vivo. On the set-up: key: +: a ≦0.1% qd dose was statistically equivalent to dexamethasone with respect to reduction of EPO activity; −: the compound was statistically inferior to dexamethasone and not different than vehicle. The note with it: ≦0.1% qd topical, 1 hour prior to ovalbumin challenge; reduction of conjunctival EPO activity vs dexamethasone. As for the experimental part:
Male Hartley VAF outbred guinea pigs were passively sensitized to ovalbumin by a single OD subconjunctival injection of undiluted guinea pig anti-ovalbumin antiserum 24 hours before OD topical challenge with 500 μg ovalbumin in saline. Control animals were injected with saline only and challenged with ovalbumin. To determine acute phase drug efficacy, 30 min after challenge animals were clinically scored by a masked observer for severity of signs of conjunctivitis based on a standard scale. Test compounds were administered topically 1 hour prior to challenge (QD protocol), or 1 hour prior to challenge and again 8 hours after challenge (BID protocol). Twenty-four hours after challenge, animals were euthanized and conjunctivae were harvested for determination of tissue eosinophil peroxidase (EPO) concentration as a marker of allergic inflammation. Homogenates of freshly collected tissues were prepared by shaking the tissues in 2 mL round-bottom tubes containing 0.5 mL of homogenization buffer (50 mM Tris HCl, pH 8.0, 6 mM KBr) and one 5-mm stainless steel bead on a Qiagen TissueLyser at 30 Hz for 5 min. Homogenates were frozen and thawed once, then centrifuged at 10,000 rpm for 5 min. EPO activity in supernatants was measured by reacting diluted homogenates with a solution of 6 mM o-phenylenediamine substrate and 8.8 mM H2O2 in homogenization buffer for 3 min. The reaction was stopped with 4M H2SO4 and absorbances were measured at […] on a spectrophotometric plate reader. Total EPO in samples was calculated from a standard curve of recombinant human EPO in each assay. EPO activity was normalized to total protein concentration (Pierce BCA assay) in supernatants. Background EPO activity was determined from the unsensitized, antigen-challenged control group. Percent inhibition was calculated from the sensitized, antigen-challenged, vehicle-treated control group in each experiment. Ovalbumin-injected animals dosed topically with 0.1% w/v dexamethasone (dex) served as positive control. Groups were compared by ANOVA with Dunnett's or Tukey's post-hoc tests where appropriate with significance assigned at the 95% confidence level.
The table below summarizes the results.

One may read the EC50 as the concentration that produces a half-maximal response.

Some results are limits rather than exact numbers.

T1 sequence (Q9H3N8 whole entry): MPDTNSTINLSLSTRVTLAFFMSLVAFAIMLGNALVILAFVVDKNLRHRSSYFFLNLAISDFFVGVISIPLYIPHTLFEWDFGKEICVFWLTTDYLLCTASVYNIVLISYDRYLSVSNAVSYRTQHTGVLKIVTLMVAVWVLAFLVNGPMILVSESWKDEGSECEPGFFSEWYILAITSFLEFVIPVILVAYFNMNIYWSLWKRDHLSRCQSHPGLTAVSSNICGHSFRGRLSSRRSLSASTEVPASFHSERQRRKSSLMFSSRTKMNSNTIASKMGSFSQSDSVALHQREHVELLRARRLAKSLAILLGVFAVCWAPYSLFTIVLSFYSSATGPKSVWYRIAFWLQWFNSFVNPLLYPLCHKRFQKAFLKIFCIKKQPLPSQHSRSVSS
T2 sequence (P35367 whole entry): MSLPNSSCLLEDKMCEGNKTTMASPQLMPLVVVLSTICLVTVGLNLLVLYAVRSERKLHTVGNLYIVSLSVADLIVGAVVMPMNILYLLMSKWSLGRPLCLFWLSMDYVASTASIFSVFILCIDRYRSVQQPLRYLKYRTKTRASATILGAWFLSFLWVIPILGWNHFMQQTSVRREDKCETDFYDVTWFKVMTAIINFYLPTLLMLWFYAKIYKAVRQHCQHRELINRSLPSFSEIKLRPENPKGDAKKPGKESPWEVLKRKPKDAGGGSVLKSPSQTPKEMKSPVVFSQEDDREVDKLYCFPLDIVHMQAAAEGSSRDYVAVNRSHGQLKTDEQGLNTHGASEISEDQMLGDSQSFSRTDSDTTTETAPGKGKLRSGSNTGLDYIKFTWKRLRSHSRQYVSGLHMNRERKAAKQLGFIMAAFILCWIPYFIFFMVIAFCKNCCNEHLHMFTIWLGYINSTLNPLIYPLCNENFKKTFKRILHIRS

As to `CN1CCN(c2nc3ccc(Cl)cc3n3cnnc23)CC1` [Example 55, 8-chloro-4-(4-methylpiperazin-1-yl)-[1,2,4]triazolo[4,3-a]quinoxaline], the EC50 on human H4 is less than 10 µM; on human H1, greater than 10 µM. In experiment [1], the QD activity entry was “+”.
In the same order, the values of `Clc1ccc2nc(N3CCNCC3)c3nncn3c2c1` [Example 57, 8-chloro-4-(piperazin-1-yl)-[1,2,4]triazolo[4,3-a]quinoxaline] are less than 10 µM, greater than 10 µM and “+”.

The values are drawn from US20120065187A1 (ALCON RESEARCH, LTD, priority 2008, published 2012).
